According to US12527819B2, “Method of preventing or treating viral infections” (Vector Vitale IP LLC, priority 2020, dated 2026):
Values after ≈ are worked out from the molar mass of the structure shown. Like-named read-outs stand apart in the source and are kept apart here.

Tests used:
MDBK cells = test: Mitotic regime of MDBK cells (cytological analysis); type: cell-based, bovine; details: dilution 1:1000; for Abnormal mitoses MDBK / Mitotic activity MDBK: relative to tissue control
Description: Cytological analysis was performed after fixing the cells grown on cover-glasses in Shabadash's fluid (9 parts of copper nitrate in ethyl alcohol+1 part of formalin) for 30 minutes. The samples for the cytological analysis were stained using hematoxylin and eosin stain according to the generally accepted procedure.
The mitotic index was calculated by analyzing 3000-10000 observed cells and was expressed in ppm (‰), which was the number of mitoses per 1000 cells. At the same time, the presence of pathological forms of mitosis was determined. A classification developed by V. N. Blyumkin was used for the analysis of pathological mitoses.
The examination of cytological preparations was carried out with lenses ×40 and ×100, eyepiece ×10 in a Standard 20, Zeiss microscope.
The experiment was conducted on the culture of MDBK cells that were treated with various options of the drugs. After 24 hours of contact the cells were fixed and cytological preparations were made using a standard technique.
The culture of MDBK cells was selected for the study. The cells were treated with various drug options at concentrations nontoxic for cells. After 24 hours of contact, the cells were fixed and cytological preparations were prepared according to a conventional technique.

MDCK cells = test system: MDCK cells; set-up: unit not given beside the values
herpes simplex virus = test: Light water at various doses in mice infected intracerebrally with herpes virus; type: in vivo; details: 14 day; for Number of survived mice: 8 mice
Description: Thus 50, 100 and 200 μl per mouse were administered to the infected animals.
Groups consisting of 8 mice each were included in the experiment. […] The first administration of drugs was 24 hours later. After infection, there were 4 injections in total given every other day. Uninfected mice who received intracerebral injections of 30 μl of normal saline solution and the mice infected with HSV served as a control.

[1] = test system: influenza virus A/FM/1/47 (H1N1); type: in vivo, BALB/c mice; details: reference drug, 1000 μg/kg
in vitro = details: dog
herpes virus = test: Herpes virus meningoencephalitis model in mice, treatment regimen; details: dose 100 μg
Description: The anti-herpes activity of zinc preparations was studied in the model of herpes virus meningoencephalitis in BALB/c mice (18-20 g in weight) with their intracerebral administration at a dose of 0.03 ml. In all the experimental groups, the drug was administered intraperitoneally at a dose of 0.1 ml. […] 4B—Zn-64 citrate in deuterium-depleted water—3 mg/ml • 2. 4B-2—Zn citrate in deuterium-depleted water—3 mg/ml • 3. 8B—Zn-64 glutamate in deuterium-depleted water—3 mg/ml • 4. 8B-2—Zn glutamate in deuterium-depleted water—3 mg/ml • 5. 9B—Zn-64 glycine-methionine in deuterium-depleted water—1 mg/ml • 6. 9B-2—Zn glycine-methionine in deuterium-depleted water—1 mg/ml
The drug activity was evaluated by comparing the lethality in the experimental and control groups. The following factors were taken into account: • percentage of animals that died • multiplicity of protection (MP)—multiplicity of decrease in the number of dead mice in the experimental group compared to the control group • efficacy index (EI) of the drugs was determined using the following formula:

Description for Raji cells: A colorimetric assay using MTT 3-(4,5-dimethylthiazol-2-yl)-2,5-diphenyltetrazolium bromide (Sigma, USA) is based on the features of functioning of the dehydrogenase system of mitochondria of living cells which, under normal conditions, reprocess the artificial substrate MTT into a formazan that can be accounted spectrophotometrically.
The MTT substrate (Sigma, USA) was dissolved in sterile phosphate buffered saline (pH 7.2) at room temperature to a concentration of 5 mg/ml. The filtered MTT solution in a volume of 20 μl was added to the wells of a 96-well plate and incubated with the cells for 2 to 4 hours at 37° C. After incubation, the medium was removed, and 150 μl of 96° ethanol was added to the cells to dissolve the formazan crystals. The optical density of the solutions was determined spectrophotometrically using a Multican FC reader (“Thermo Scientific” (USA)) at a wavelength of 540 nm.
Cytotoxicity of the preparations under study was assessed using the MTT (3-(4,5-dimethylthiazol-2-yl)-2-5-diphenyltetrozolium bromide) assay, one of the commonly used colorimetric assay (Sigma USA). This assay determined cell viability through determination of mitochondrial function of cells by measuring activity of mitochondrial enzymes such as succinate dehydrogenase. In this assay, MTT is reduced to a purple formazan by NADH, which can be quantified spectrophotometrically. […] The purple color was measured at an excitation wavelength of 540 nm using a Thermo Scientific (USA) reader.

Molecule: N[C@@H](CCC(=O)O)C(=O)O [10a, glutamic acid]
- Abnormal mitoses in % (MDBK cells; MDBK, 24 h): 22.2%
- Abnormal mitoses MDBK (MDBK cells): 1.0
- Mitotic activity MDBK (MDBK cells): 0.77
- CC50 as dilution (MDCK cells): 1:160

Molecule: Nc1nc2c(ncn2COCCO)c(=O)[nH]1 [Aciclovir, Acyclovir, reference compound]
- MP (%) (herpes simplex virus; reference, dose not given): 25%
- Number of survived mice (herpes simplex virus; reference, dose not given): 2

Molecule: CCOC(=O)C1=C[C@@H](OC(CC)CC)[C@H](NC(C)=O)[C@@H](N)C1 [Tamiflu]
- EI (efficacy index) [1]: 70
- Inhibition of infectious titer in cerebral tissue in lg TCD50 [1]: 2.5 lg TCD50
- Number of mice that died, % ([1]; 10 mice): 30.0%
- Number of mice that died, total ([1]; 10 mice): 3

Molecule: N[C@@H](CC(=O)O)C(=O)O [9a, aspartic acid]
- CC50 as dilution (MDCK cells): 1/80
- CC50 at 5 days (in vitro): 42 µg/mL (≈ 316 µM)

Molecule: O=C(O)CC(O)(CC(=O)O)C(=O)O [No 8a, citric acid]
- CC50 as dilution (MDCK cells): 1/160
- CC50 at 5 days (in vitro): 14 µg/mL (≈ 72.9 µM)

Molecule: Deuterium-depleted water
- MP (%) (herpes simplex virus; 50 μl/mouse): 38%
- Number of survived mice (herpes simplex virus; 50 μl/mouse, 4 injections): 3
- MP (%) (herpes simplex virus; 100 μl/mouse): 50%
- Number of survived mice (herpes simplex virus; 100 μl/mouse, 4 injections): 4
- MP (%) (herpes simplex virus; 200 μl/mouse): 75%
- Number of survived mice (herpes simplex virus; 200 μl/mouse, 4 injections): 6
- EI (efficacy index) (herpes virus): 50.0
- Inhibition of infectious titer in cerebral tissue in lg TCD50 (herpes virus): 2.0 lg TCD50
- MP (multiplicity of protection) (herpes virus): 2.0
- Number of mice that died, % (herpes virus; 10 mice): 50.0%
- Number of mice that died, total (herpes virus; 10 mice): 5

Molecule: Cc1ccc(S(=O)(=O)Nc2ccccc2NC(=O)c2ccccc2)cc1 [10-3, n-n-toluenesulfonyl-n-benzoyl-o-phenylenediamine]
- Abnormal mitoses in % (MDBK cells; MDBK, 24 h): 25.0%
- Mitotic activity in % (MDBK cells; MDBK, 24 h): 16.0%
- Abnormal mitoses MDBK (MDBK cells): 1.12
- Mitotic activity MDBK (MDBK cells): 0.88
- viability of Raji cells (MTT reading) (Raji cells; 0.9 μg/ml): 1.287
- viability of Raji cells (MTT reading) (Raji cells; 9 μg/ml): 1.235
- viability of Raji cells (MTT reading) (Raji cells; 18 μg/ml): 0.1791
- viability of Raji cells (MTT reading) (Raji cells; 90 μg/ml): 0.152
- CC50 (Raji cells; Raji cells, MTT): 33.46 µg/mL (≈ 91.3 µM)
